This note sets out measurements from patent US20250075180A1, “METHOD FOR EXPANSION CULTURE OF GAMMA-DELTA T CELL” (IMMUNOMAX CO., LTD., priority 2022, published 2025).

Each structure is given as a SMILES string.

Series [1] has as its system γδ T cells. As to the kind of experiment: γδ T cell proliferation rate and viability in PBMC culture depending on finasteride concentration (Example 1). The series is classed as cell-based, human. The settings on record: for γδ T cell proliferation rate increase compared to control (IL-2 and ZA): PBMC from donor, 14-day culture; for proliferation rate of γδ T cells compared to control (in words): 14 days. How it is done: For 100 cc of blood from a healthy donor collected by a medical professional and placed in a heparin tube, 25 ml of 1×DPBS and 25 ml of the blood were placed in four 50 ml conical tubes. 15 ml of Lymphoprep (Axis Shield, UK) was vertically dispensed into a new 50 ml conical tube carefully to avoid contacting the wall as much as possible, and the diluted blood was slowly added to the top of the 50 ml conical tube containing the Lymphoprep solution along the wall. The conical tube was placed in a centrifuge and centrifuged at 800×g (1,890 rpm) for 20 minutes at room temperature. In the separated four blood layers, the white buffy coat layer between Lymphoprep and plasma layers was collected, transferred to new 50 ml conical tubes (three or four), and centrifuged at 1,500 rpm (500×g) for 10 minutes at room temperature. The cells divided into three or four 50 ml conical tubes were resuspended in 45 ml of 1×DPBS and then collected into one 50 ml conical tube. The cells collected in one tube were centrifuged a total of two times at 1,250 rpm (350×g) for 10 minutes at room temperature. A culture medium was added to a stock of 1.0×10^7 cells to a final volume of 10 ml so that the cell concentration was 1.0×10^6 cells/ml, followed by pipetting two or three times, after which 1.0 ml of the cells was dispensed as day 0 samples to proceed with culture, and the remaining cells were dispensed at 1.0×10^7 cells into frozen vials, stored frozen in a nitrogen tank (LN2 tank), and used by thawing as necessary. The peripheral blood mononuclear cells (PBMC) isolated in 1-1 were continuously treated with 3 μM zoledronic acid and 10^3 IU/ml IL-2 as basic culture components for γδ T cells and with 0.01 nM and 10 nM finasteride as an active ingredient, followed by culture for a total of 14 days, and the activation and proliferation rates of γδ T cells were compared. The frozen peripheral blood mononuclear cells were thawed in a constant temperature water bath at 37° C. and then suspended in 9 ml of OpTmizer medium (Thermo-Fisher Scientific, USA) containing 10% heat inactivated fetal bovine serum (FBS, Gibco, USA). The number of cells was measured, followed by centrifugation at 400×g and 25° C. for 4 minutes. The cell pellets obtained by centrifugation were suspended in 5 ml of complete OpTmizer medium (10% fetal bovine serum+OpTmizer medium, cOpTmizer) and the number of cells was measured, after which the cells were diluted with cOpTmizer medium to a concentration of 1.0×10^6 cells/ml. […] After 2 days of re-induction, the aggregated cells were resuspended using a 1000P micropipette and the number of cells was measured. […] 7 days after the start of culture, the aggregated cells were resuspended using a 1000P micropipette or a 10 ml serological pipette and the number of cells was measured. […]

Series [2] concerns γδ T cells. The series is described as follows: γδ T cell proliferation rate and viability in PBMC culture depending on finasteride treatment period (Example 4). In kind it is cell-based, human. The protocol:
Peripheral blood mononuclear cells (PBMC) were isolated from healthy donors and were cultured for a total of 14 days by continuous treatment with 10 nM finasteride as the active ingredient for each period until day 7, day 10, and day 14 from the start date of culture, in addition to the basic culture components for γδ T cells (3 μM zoledronic acid and 10^3 IU/ml IL-2), and the activation and proliferation rates of γδ T cells were compared. The frozen peripheral blood mononuclear cells were thawed in a constant temperature water bath at 37° C. and then suspended in 9 ml of OpTmizer medium (cOpTmizer, Thermo-Fisher Scientific, USA) containing 10% fetal bovine serum (FBS). The number of cells was measured, followed by centrifugation at 400×g and 25° C. for 4 minutes. The cell pellets obtained by centrifugation were suspended in 5 ml of cOpTmizer medium (Thermo-Fisher Scientific, USA) and the number of cells was measured, after which the cells were diluted with cOpTmizer medium to a concentration of 1.0×10^6 cells/ml. A total of 1.0×10^6 cells was dispensed at 1 ml per well in a 24-well plate. To stimulate and induce differentiation of γδ T cells, 10 nM finasteride, 3 μM zoledronic acid (ZA), and 100 μl of IL-2 (10^3 IU/ml) were added, followed by culture in a CO2 incubator at 37° C. for 4 days. 4 days after the start of culture, the aggregated cells were resuspended using a 1000P micropipette, and the same amount of cOpTmizer culture medium based on the cell culture fluid in culture and 10 nM finasteride and IL-2 (10^3 IU/ml) for re-induction were further added, followed by culture in a CO2 incubator at 37° C. 5 days after the start of culture, the aggregated cells were resuspended using a 1000P micropipette and the number of cells was measured. 10 nM finasteride and IL-2 (10^3 IU/ml) were further added to the same amount of cOpTmizer culture medium based on the cell culture fluid in culture, followed by culture in a CO2 incubator at 37° C. The next day, 10 nM finasteride and IL-2 (10^3 IU/ml) were further added to half of the cOpTmizer culture medium based on the cell culture fluid in culture, followed by culture in a CO2 incubator at 37° C. 7 days after the start of culture, the aggregated cells were resuspended using a 1000P micropipette or a 10 ml serological pipette and the number of cells was measured. The cells were diluted with cOpTmizer culture medium to a concentration of 0.4×10^6 cells/ml based on the cells in culture, after which 10 nM finasteride and IL-2 (10^3 IU/ml) were added to the additional cOpTmizer culture medium, followed by culture in a CO2 incubator at 37° C. for 3 days. 10 days after the start of culture, the aggregated cells were resuspended using a 1000P micropipette or a 10 ml serological pipette and the number of cells was measured. The cells were diluted with cOpTmizer culture medium to a concentration of 0.4×10^6 cells/ml based on the cells in culture, after which 10 nM finasteride and IL-2 (10^3 IU/ml) were added to the additional cOpTmizer culture medium, followed by culture in a CO2 incubator at 37° C. On day 12 after the start of the culture, the same amount of cOpTmizer culture medium based on the cell culture fluid in culture, 10 nM finasteride, and IL-2 (10^3 IU/ml) were added, followed by culture in a CO2 incubator at 37° C. 14 days after the start of culture, the aggregated cells were resuspended using a 1000P micropipette or a 10 ml serological pipette and the number of cells was measured. […]

[3] abbreviates: 10 nM finasteride continuously until day 7, 14-day culture, FIG. 9.

Take `CC(C)(C)NC(=O)[C@H]1CC[C@H]2[C@@H]3CC[C@H]4NC(=O)C=C[C@]4(C)[C@H]3CC[C@]12C` [Finasteride]: the “γδ T cell proliferation rate increase compared to control (IL-2 and ZA)” value with γδ T cells [1] (0.01 nM finasteride) turned out to be 1.15 times increase; in the series on γδ T cells [1] (10 nM finasteride), 1.35 times increase. In addition, the “proliferation rate of γδ T cells compared to control (in words)” value in the series with γδ T cells [1] (female donors, low concentration of finasteride (0.01 nM), FIG. 2) was “increased”; with γδ T cells [1] (male donors, high concentration of finasteride (10 nM), FIG. 1), “increased”. For the same compound, the “γδ T cell proliferation rate increase compared to control group” value in the series on γδ T cells [2] (setting [3]) is “about 1.5 times”. In addition, the “γδ T cell proliferation rate increase compared to group treated continuously until day 10 or 14” value in the series on γδ T cells [2] (setting [3]) is “at least 1.1 times”. Moreover, the “cell viability compared to control group” value in the series with γδ T cells [2] (continuous treatment with high concentration (10 nM) of finasteride) is “no significant difference”. Further, the “proportion of γδ T cells” value in the series with γδ T cells [2] (cultured for 7 days) is recorded as “about 70%”; in the series on γδ T cells [2] (cultured for 10 days), at least 90%.
